# In ChEMBL document CHEMBL3593228, “Hedgehog inhibitors from Artocarpus communis and Hyptis suaveolens” (Bioorg Med Chem, 2015):
# Active and inactive are the calls of the source. The rule behind the calls is not given here.
# Tested on: not listed separately
# Experiment: Cytotoxicity against Hh signaling abnormally activated human PANC1 cells after 24 hrs by fluorometric microculture assay
# Assay type: functional, cell-based
# Conditions: PANC-1, 24 h
row,SMILES,IC50
1,C=C1C(=O)O[C@H]2/C=C(\C)C[C@@H]3C=C(CC/C=C(\C)CC[C@H]12)C(=O)O3,12.1 µM
2,CC(C)=CCC/C(C)=C/Cc1c(CCC(=O)c2ccc(O)cc2O)ccc(O)c1O,42.9 µM
3,COC(C)(C)CCC/C(C)=C/Cc1c(CCC(=O)c2ccc(O)cc2O)ccc(O)c1O,> 75 µM
4,C=C1C(=O)O[C@H]2/C=C(\C)C[C@@H]3C=C(CC[C@@H](OO)C(=C)CC[C@H]12)C(=O)O3,15.7 µM
5,C/C(=C\Cc1c(CCC(=O)c2ccc(O)cc2O)ccc(O)c1O)CCCC(C)(C)O,> 75 µM
6,CC(C)=CCCC1(C)CCc2c(CCC(=O)c3ccc(O)cc3O)ccc(O)c2O1 (stereo not given),59.5 µM
7,CC(C)=CCC/C(C)=C/Cc1c(O)cc2c(c1O)C(=O)C[C@@H](c1ccc(O)cc1)O2 [BONANNIONE A],29.9 µM
8,C=C1C(=O)O[C@H]2/C=C(\C)C[C@@H]3C=C(C/C=C/[C@@](C)(OO)CC[C@H]12)C(=O)O3,17.9 µM
9,COC(C)(C)CCCC1(C)CCc2c(CCC(=O)c3ccc(O)cc3O)ccc(O)c2O1 (stereo not given),48.3 µM
10,C=C1C(=O)O[C@H]2/C=C(\C)C[C@@H]3C=C(C/C=C/[C@@](C)(O)CC[C@H]12)C(=O)O3,46.9 µM
11,CC(C)(O)CCCC1(C)Oc2c(O)ccc(CCC(=O)c3ccc(O)cc3O)c2CC1O (stereo not given),58.8 µM
12,CC(C)(O)CCCC1(C)CCc2c(CCC(=O)c3ccc(O)cc3O)ccc(O)c2O1 (stereo not given),36.7 µM
13,CC(C)=CCCC1(C)Oc2c(O)ccc(CCC(=O)c3ccc(O)cc3O)c2CC1O (stereo not given),50 µM
14,CC1(C)CCC[C@]2(C)Oc3c(O)ccc(CCC(=O)c4ccc(O)cc4O)c3C[C@@H]12,34.3 µM

# Tested on: not listed separately
# Experiment: Inhibition of hedgehog signaling pathway in human HaCaT cells assessed as reduction of BCL2 expression after 12 hrs by Western blotting
# Assay type: cell-based
# Conditions: not given
row,SMILES,inhibition
1,C=C1C(=O)O[C@H]2/C=C(\C)C[C@@H]3C=C(CC/C=C(\C)CC[C@H]12)C(=O)O3,Dose-dependent effect
2,C=C1C(=O)O[C@H]2/C=C(\C)C[C@@H]3C=C(CC[C@@H](OO)C(=C)CC[C@H]12)C(=O)O3,Dose-dependent effect
3,C=C1C(=O)O[C@H]2/C=C(\C)C[C@@H]3C=C(C/C=C/[C@@](C)(OO)CC[C@H]12)C(=O)O3,Dose-dependent effect

# Tested on: not listed separately
# Experiment: Inhibition of hedgehog signaling pathway in human DU145 cells assessed as reduction of BCL2 expression at 7 to 13.9 uM after 12 hrs by Western blotting
# Assay type: cell-based
# Conditions: DU-145
row,SMILES,inhibition
1,C=C1C(=O)O[C@H]2/C=C(\C)C[C@@H]3C=C(CC/C=C(\C)CC[C@H]12)C(=O)O3,Active
2,C=C1C(=O)O[C@H]2/C=C(\C)C[C@@H]3C=C(CC[C@@H](OO)C(=C)CC[C@H]12)C(=O)O3,Active
3,C=C1C(=O)O[C@H]2/C=C(\C)C[C@@H]3C=C(C/C=C/[C@@](C)(OO)CC[C@H]12)C(=O)O3,Active

# Target: T1, Zinc finger protein GLI1 (Homo sapiens) (UniProt P08151)
# T1 sequence (whole entry): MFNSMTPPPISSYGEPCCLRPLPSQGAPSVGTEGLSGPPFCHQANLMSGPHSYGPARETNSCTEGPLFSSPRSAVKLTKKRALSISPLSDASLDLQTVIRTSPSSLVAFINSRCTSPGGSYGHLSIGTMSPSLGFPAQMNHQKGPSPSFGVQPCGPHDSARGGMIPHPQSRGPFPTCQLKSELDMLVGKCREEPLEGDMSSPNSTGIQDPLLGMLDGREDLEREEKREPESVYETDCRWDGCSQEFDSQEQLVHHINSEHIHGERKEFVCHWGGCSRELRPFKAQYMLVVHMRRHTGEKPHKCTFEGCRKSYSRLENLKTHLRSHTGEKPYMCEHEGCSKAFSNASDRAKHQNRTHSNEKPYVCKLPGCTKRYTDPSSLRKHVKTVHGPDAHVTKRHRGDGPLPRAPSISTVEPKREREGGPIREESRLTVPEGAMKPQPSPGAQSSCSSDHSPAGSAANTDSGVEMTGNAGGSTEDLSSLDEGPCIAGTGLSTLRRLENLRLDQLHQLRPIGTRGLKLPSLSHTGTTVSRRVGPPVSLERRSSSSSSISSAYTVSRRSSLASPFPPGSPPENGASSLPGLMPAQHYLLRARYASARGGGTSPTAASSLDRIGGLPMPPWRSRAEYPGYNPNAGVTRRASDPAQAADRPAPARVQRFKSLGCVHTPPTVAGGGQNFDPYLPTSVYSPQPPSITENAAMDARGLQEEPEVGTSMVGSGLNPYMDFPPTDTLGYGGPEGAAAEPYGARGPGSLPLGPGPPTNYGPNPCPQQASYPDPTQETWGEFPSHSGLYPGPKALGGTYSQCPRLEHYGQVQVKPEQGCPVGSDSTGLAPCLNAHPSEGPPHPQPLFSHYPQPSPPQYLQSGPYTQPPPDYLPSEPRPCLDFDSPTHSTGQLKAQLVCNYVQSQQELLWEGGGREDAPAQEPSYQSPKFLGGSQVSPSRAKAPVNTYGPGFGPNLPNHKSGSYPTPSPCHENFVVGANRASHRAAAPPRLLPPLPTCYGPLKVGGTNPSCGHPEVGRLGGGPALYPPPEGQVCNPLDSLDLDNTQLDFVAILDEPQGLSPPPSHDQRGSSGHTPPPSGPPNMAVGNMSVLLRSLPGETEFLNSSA
# Experiment: Inhibition of GLI1-DNA (unknown origin) complex formation at 15 to 150 uM after 20 mins by electrophoretic mobility shift assay
# Conditions: not given
row,SMILES,inhibition
1,C=C1C(=O)O[C@H]2/C=C(\C)C[C@@H]3C=C(CC/C=C(\C)CC[C@H]12)C(=O)O3,inactive
2,C=C1C(=O)O[C@H]2/C=C(\C)C[C@@H]3C=C(CC[C@@H](OO)C(=C)CC[C@H]12)C(=O)O3,Active
3,C=C1C(=O)O[C@H]2/C=C(\C)C[C@@H]3C=C(C/C=C/[C@@](C)(OO)CC[C@H]12)C(=O)O3,Active

# Tested on: DU-145
# Experiment: Cytotoxicity against Hh signaling abnormally activated human DU145 cells after 24 hrs by fluorometric microculture assay
# Assay type: functional, cell-based
# Conditions: DU-145, 24 h
row,SMILES,IC50
1,C=C1C(=O)O[C@H]2/C=C(\C)C[C@@H]3C=C(CC/C=C(\C)CC[C@H]12)C(=O)O3,32.6 µM
2,CC(C)=CCC/C(C)=C/Cc1c(CCC(=O)c2ccc(O)cc2O)ccc(O)c1O,80.6 µM
3,C=C1C(=O)O[C@H]2/C=C(\C)C[C@@H]3C=C(CC[C@@H](OO)C(=C)CC[C@H]12)C(=O)O3,18.8 µM
4,C=C1C(=O)O[C@H]2/C=C(\C)C[C@@H]3C=C(C/C=C/[C@@](C)(OO)CC[C@H]12)C(=O)O3,30.3 µM
5,CC1(C)CCC[C@]2(C)Oc3c(O)ccc(CCC(=O)c4ccc(O)cc4O)c3C[C@@H]12,53.7 µM

# Target: T1, Zinc finger protein GLI1 (Homo sapiens)
# Experiment: Inhibition of GLI1-DNA (unknown origin) complex formation at 15 to 30 uM after 20 mins by electrophoretic mobility shift assay
# Conditions: not given
row,SMILES,inhibition
1,CC(C)=CCC/C(C)=C/Cc1c(CCC(=O)c2ccc(O)cc2O)ccc(O)c1O,Active
2,COC(C)(C)CCC/C(C)=C/Cc1c(CCC(=O)c2ccc(O)cc2O)ccc(O)c1O,Active

# Tested on: not listed separately
# Experiment: Cytotoxicity against mouse C3H10T1/2 cells after 24 hrs by fluorometric microculture assay
# Assay type: cell-based
# Conditions: C3H 10T1/2, 24 h
row,SMILES,IC50
1,C=C1C(=O)O[C@H]2/C=C(\C)C[C@@H]3C=C(CC/C=C(\C)CC[C@H]12)C(=O)O3,> 30.5 µM
2,CC(C)=CCC/C(C)=C/Cc1c(CCC(=O)c2ccc(O)cc2O)ccc(O)c1O,> 75 µM
3,COC(C)(C)CCC/C(C)=C/Cc1c(CCC(=O)c2ccc(O)cc2O)ccc(O)c1O,> 75 µM
4,C=C1C(=O)O[C@H]2/C=C(\C)C[C@@H]3C=C(CC[C@@H](OO)C(=C)CC[C@H]12)C(=O)O3,> 27.8 µM
5,C/C(=C\Cc1c(CCC(=O)c2ccc(O)cc2O)ccc(O)c1O)CCCC(C)(C)O,> 75 µM
6,CC(C)=CCCC1(C)CCc2c(CCC(=O)c3ccc(O)cc3O)ccc(O)c2O1 (stereo not given),> 75 µM
7,CC(C)=CCC/C(C)=C/Cc1c(O)cc2c(c1O)C(=O)C[C@@H](c1ccc(O)cc1)O2 [BONANNIONE A],> 75 µM
8,C=C1C(=O)O[C@H]2/C=C(\C)C[C@@H]3C=C(C/C=C/[C@@](C)(OO)CC[C@H]12)C(=O)O3,> 55.6 µM
9,C=C1C(=O)O[C@H]2/C=C(\C)C[C@@H]3C=C(C/C=C/[C@@](C)(O)CC[C@H]12)C(=O)O3,> 50 µM
10,CC(C)=CCCC1(C)Oc2c(O)ccc(CCC(=O)c3ccc(O)cc3O)c2CC1O (stereo not given),> 75 µM
11,CC1(C)CCC[C@]2(C)Oc3c(O)ccc(CCC(=O)c4ccc(O)cc4O)c3C[C@@H]12,> 75 µM

# Tested on: not listed separately
# Experiment: Inhibition of hedgehog signaling pathway in human HaCaT cells assessed as reduction of BCL2 expression at 7.6 uM after 12 hrs by Western blotting
# Assay type: cell-based
# Conditions: not given
row,SMILES,inhibition
1,C=C1C(=O)O[C@H]2/C=C(\C)C[C@@H]3C=C(CC/C=C(\C)CC[C@H]12)C(=O)O3,Active

# Tested on: not listed separately
# Experiment: Inhibition of hedgehog signaling pathway in human HaCaT cells assessed as GLI1-mediated transcriptional activity after 12 hrs by luciferase assay
# Assay type: cell-based
# Conditions: not given
SMILES,IC50,inhibition
C=C1C(=O)O[C@H]2/C=C(\C)C[C@@H]3C=C(CC/C=C(\C)CC[C@H]12)C(=O)O3,4 µM,Dose-dependent effect
CC(C)=CCC/C(C)=C/Cc1c(CCC(=O)c2ccc(O)cc2O)ccc(O)c1O,23.6 µM,Dose-dependent effect
COC(C)(C)CCC/C(C)=C/Cc1c(CCC(=O)c2ccc(O)cc2O)ccc(O)c1O,> 75 µM,
C=C1C(=O)O[C@H]2/C=C(\C)C[C@@H]3C=C(CC[C@@H](OO)C(=C)CC[C@H]12)C(=O)O3,4.7 µM,Dose-dependent effect
C/C(=C\Cc1c(CCC(=O)c2ccc(O)cc2O)ccc(O)c1O)CCCC(C)(C)O,> 75 µM,
CC(C)=CCCC1(C)CCc2c(CCC(=O)c3ccc(O)cc3O)ccc(O)c2O1 (stereo not given),44.2 µM,Dose-dependent effect
CC(C)=CCC/C(C)=C/Cc1c(O)cc2c(c1O)C(=O)C[C@@H](c1ccc(O)cc1)O2 [BONANNIONE A],14.6 µM,Dose-dependent effect
C=C1C(=O)O[C@H]2/C=C(\C)C[C@@H]3C=C(C/C=C/[C@@](C)(OO)CC[C@H]12)C(=O)O3,7.6 µM,Dose-dependent effect
COC(C)(C)CCCC1(C)CCc2c(CCC(=O)c3ccc(O)cc3O)ccc(O)c2O1 (stereo not given),39.9 µM,
C=C1C(=O)O[C@H]2/C=C(\C)C[C@@H]3C=C(C/C=C/[C@@](C)(O)CC[C@H]12)C(=O)O3,16.3 µM,
CC(C)(O)CCCC1(C)Oc2c(O)ccc(CCC(=O)c3ccc(O)cc3O)c2CC1O (stereo not given),43.5 µM,
CC(C)(O)CCCC1(C)CCc2c(CCC(=O)c3ccc(O)cc3O)ccc(O)c2O1 (stereo not given),29.5 µM,
CC(C)=CCCC1(C)Oc2c(O)ccc(CCC(=O)c3ccc(O)cc3O)c2CC1O (stereo not given),40.1 µM,Dose-dependent effect
CC1(C)CCC[C@]2(C)Oc3c(O)ccc(CCC(=O)c4ccc(O)cc4O)c3C[C@@H]12,40.7 µM,Dose-dependent effect

# Tested on: not listed separately
# Experiment: Inhibition of hedgehog signaling pathway in human HaCaT cells assessed as reduction of BCL2 expression at 13.9 uM after 12 hrs by Western blotting
# Assay type: cell-based
# Conditions: not given
row,SMILES,inhibition
1,C=C1C(=O)O[C@H]2/C=C(\C)C[C@@H]3C=C(CC[C@@H](OO)C(=C)CC[C@H]12)C(=O)O3,Active
